Experimental data: PMC10974290, “Biocatalytic Synthesis of Coumarin S-Glycosides: Towards Non-Cytotoxic Probes for Biomedical Imaging and Sensing” (Molecules, 2024)

Assay: Fluorescence excitation/emission spectroscopy and relative quantum yield
Assay type: physicochemical
Details: DMF, 0.1 mM, emission at 420 nm; 7-MC in presence of 10 mM DTT
Protocol: The values determined were close to those observed for the 4-MUB fluorophore.
Both absorbance and fluorescence spectra were measured on a Tecan […] M PLEX 200 Pro plate reader equipped with monochromator allowing a scan from 230 to 1000 nm. […] The solutions were then transferred to a Corning (Corning, NY, USA) UV-transparent 96-well plate. Absorbance spectra were recorded from 230 to 800 nm. Emission fluorescence spectra were recorded from 320 to 800 nm, under excitation at 280 nm. Excitation fluorescence spectra were recorded from 230 to 380 nm for an emission at 420 nm. All spectra were recorded with a wavelength step size of 2 nm. Data processing was performed with Excel software 2016. Fluorescence spectra are presented as normalized spectra ranging from 0 to 1. The relative quantum yields were calculated according to Equation (1):(1) ΦT=(AR/AT)×(FT/FR)×(nT/nR)×ΦR where Φ is the fluorescence quantum yield, A is the absorbance at the excitation wavelength, F is the area under the corrected emission curve, and n is the refractive index of the solvent for the test compound (T) and the reference (R). The 4-MUB value in DMF was used as the reference. The LOD (resp. LOQ) values were determined as the minimal concentration of product S-3 required to yield a fluorescence that was twice greater than (respectively, 5-times that of) the fluorescence noise on a sample containing PBS, using an excitation wavelength of 280 nm and an emission wavelength of 386 nm (Figure S44).

Structure (SMILES)	Fluorescence λmax ex
Cc1cc(=O)oc2cc(S)ccc12 [Compound 7-MC, 7-mercapto-4-methylcoumarin, reference compound]	334 nm
Cc1cc(=O)oc2cc(S[C@@H]3O[C@H](C(=O)O)[C@@H](O)[C@H](O)[C@H]3O)ccc12 [Compound S-1, 4-Methylumbellifer-7-yl 1-thio-β-D-glucopyranosiduronic acid]	332 nm
Cc1cc(=O)oc2cc(S[C@@H]3OC[C@@H](O)[C@H](O)[C@H]3O)ccc12 [Compound S-2, 4-Methylumbellifer-7-yl 1-thio-β-D-xylopyranoside]	332 nm
Cc1cc(=O)oc2cc(S[C@@H]3O[C@H](CO)[C@@H](O)[C@H](O)[C@H]3O)ccc12 [Compound S-3, 4-Methylumbellifer-7-yl 1-thio-β-D-glucopyranoside]	332 nm
Cc1cc(=O)oc2cc(S[C@@H]3O[C@H](CO)[C@H](O)[C@H](O)[C@H]3O)ccc12 [Compound S-4, 4-Methylumbellifer-7-yl 1-thio-β-D-galactopyranoside]	334 nm
Cc1cc(=O)oc2cc(S[C@@H]3O[C@H](C)[C@H](O)[C@H](O)[C@H]3O)ccc12 [Compound S-5, 4-Methylumbellifer-7-yl 1-thio-β-D-fucopyranoside]	334 nm
Cc1cc(=O)oc2cc(S[C@H]3O[C@H](CO)[C@H](O)[C@H](O)[C@H]3O)ccc12 [Compound S-6, 4-Methylumbellifer-7-yl 1-thio-α-D-galactopyranoside]	334 nm

Same assay, conditions: DMF, 0.1 mM, excitation at 280 nm; 7-MC in presence of 10 mM DTT

Structure (SMILES)	Fluorescence λmax em
Cc1cc(=O)oc2cc(S)ccc12 [Compound 7-MC, 7-mercapto-4-methylcoumarin, reference compound]	392 nm
Cc1cc(=O)oc2cc(S[C@@H]3O[C@H](C(=O)O)[C@@H](O)[C@H](O)[C@H]3O)ccc12 [Compound S-1, 4-Methylumbellifer-7-yl 1-thio-β-D-glucopyranosiduronic acid]	390 nm
Cc1cc(=O)oc2cc(S[C@@H]3OC[C@@H](O)[C@H](O)[C@H]3O)ccc12 [Compound S-2, 4-Methylumbellifer-7-yl 1-thio-β-D-xylopyranoside]	386 nm
Cc1cc(=O)oc2cc(S[C@@H]3O[C@H](CO)[C@@H](O)[C@H](O)[C@H]3O)ccc12 [Compound S-3, 4-Methylumbellifer-7-yl 1-thio-β-D-glucopyranoside]	386 nm
Cc1cc(=O)oc2cc(S[C@@H]3O[C@H](CO)[C@H](O)[C@H](O)[C@H]3O)ccc12 [Compound S-4, 4-Methylumbellifer-7-yl 1-thio-β-D-galactopyranoside]	388 nm
Cc1cc(=O)oc2cc(S[C@@H]3O[C@H](C)[C@H](O)[C@H](O)[C@H]3O)ccc12 [Compound S-5, 4-Methylumbellifer-7-yl 1-thio-β-D-fucopyranoside]	386 nm
Cc1cc(=O)oc2cc(S[C@H]3O[C@H](CO)[C@H](O)[C@H](O)[C@H]3O)ccc12 [Compound S-6, 4-Methylumbellifer-7-yl 1-thio-α-D-galactopyranoside]	388 nm

Same assay, conditions: DMF; relative to 4-MUB in DMF; 7-MC in presence of 10 mM DTT

Structure (SMILES)	Relative quantum yield Φ
Cc1cc(=O)oc2cc(S)ccc12 [Compound 7-MC, 7-mercapto-4-methylcoumarin, reference compound]	0.009
Cc1cc(=O)oc2cc(S[C@@H]3O[C@H](C(=O)O)[C@@H](O)[C@H](O)[C@H]3O)ccc12 [Compound S-1, 4-Methylumbellifer-7-yl 1-thio-β-D-glucopyranosiduronic acid]	0.182
Cc1cc(=O)oc2cc(S[C@@H]3OC[C@@H](O)[C@H](O)[C@H]3O)ccc12 [Compound S-2, 4-Methylumbellifer-7-yl 1-thio-β-D-xylopyranoside]	0.186
Cc1cc(=O)oc2cc(S[C@@H]3O[C@H](CO)[C@@H](O)[C@H](O)[C@H]3O)ccc12 [Compound S-3, 4-Methylumbellifer-7-yl 1-thio-β-D-glucopyranoside]	0.198
Cc1cc(=O)oc2cc(S[C@@H]3O[C@H](CO)[C@H](O)[C@H](O)[C@H]3O)ccc12 [Compound S-4, 4-Methylumbellifer-7-yl 1-thio-β-D-galactopyranoside]	0.223
Cc1cc(=O)oc2cc(S[C@@H]3O[C@H](C)[C@H](O)[C@H](O)[C@H]3O)ccc12 [Compound S-5, 4-Methylumbellifer-7-yl 1-thio-β-D-fucopyranoside]	0.183
Cc1cc(=O)oc2cc(S[C@H]3O[C@H](CO)[C@H](O)[C@H](O)[C@H]3O)ccc12 [Compound S-6, 4-Methylumbellifer-7-yl 1-thio-α-D-galactopyranoside]	0.223

Same assay, conditions: PBS pH 7.4, 0.1 mM, emission at 420 nm; 7-MC in presence of 10 mM DTT

Structure (SMILES)	Fluorescence λmax ex
Cc1cc(=O)oc2cc(S)ccc12 [Compound 7-MC, 7-mercapto-4-methylcoumarin, reference compound]	321 nm
Cc1cc(=O)oc2cc(S[C@@H]3O[C@H](C(=O)O)[C@@H](O)[C@H](O)[C@H]3O)ccc12 [Compound S-1, 4-Methylumbellifer-7-yl 1-thio-β-D-glucopyranosiduronic acid]	332 nm
Cc1cc(=O)oc2cc(S[C@@H]3OC[C@@H](O)[C@H](O)[C@H]3O)ccc12 [Compound S-2, 4-Methylumbellifer-7-yl 1-thio-β-D-xylopyranoside]	326 nm
Cc1cc(=O)oc2cc(S[C@@H]3O[C@H](CO)[C@@H](O)[C@H](O)[C@H]3O)ccc12 [Compound S-3, 4-Methylumbellifer-7-yl 1-thio-β-D-glucopyranoside]	332 nm
Cc1cc(=O)oc2cc(S[C@@H]3O[C@H](CO)[C@H](O)[C@H](O)[C@H]3O)ccc12 [Compound S-4, 4-Methylumbellifer-7-yl 1-thio-β-D-galactopyranoside]	332 nm
Cc1cc(=O)oc2cc(S[C@@H]3O[C@H](C)[C@H](O)[C@H](O)[C@H]3O)ccc12 [Compound S-5, 4-Methylumbellifer-7-yl 1-thio-β-D-fucopyranoside]	326 nm
Cc1cc(=O)oc2cc(S[C@H]3O[C@H](CO)[C@H](O)[C@H](O)[C@H]3O)ccc12 [Compound S-6, 4-Methylumbellifer-7-yl 1-thio-α-D-galactopyranoside]	332 nm

Same assay, conditions: PBS pH 7.4, 0.1 mM, excitation at 280 nm; 7-MC in presence of 10 mM DTT

Structure (SMILES)	Fluorescence λmax em
Cc1cc(=O)oc2cc(S)ccc12 [Compound 7-MC, 7-mercapto-4-methylcoumarin, reference compound]	448 nm
Cc1cc(=O)oc2cc(S[C@@H]3O[C@H](C(=O)O)[C@@H](O)[C@H](O)[C@H]3O)ccc12 [Compound S-1, 4-Methylumbellifer-7-yl 1-thio-β-D-glucopyranosiduronic acid]	402 nm
Cc1cc(=O)oc2cc(S[C@@H]3OC[C@@H](O)[C@H](O)[C@H]3O)ccc12 [Compound S-2, 4-Methylumbellifer-7-yl 1-thio-β-D-xylopyranoside]	402 nm
Cc1cc(=O)oc2cc(S[C@@H]3O[C@H](CO)[C@@H](O)[C@H](O)[C@H]3O)ccc12 [Compound S-3, 4-Methylumbellifer-7-yl 1-thio-β-D-glucopyranoside]	402 nm
Cc1cc(=O)oc2cc(S[C@@H]3O[C@H](CO)[C@H](O)[C@H](O)[C@H]3O)ccc12 [Compound S-4, 4-Methylumbellifer-7-yl 1-thio-β-D-galactopyranoside]	402 nm
Cc1cc(=O)oc2cc(S[C@@H]3O[C@H](C)[C@H](O)[C@H](O)[C@H]3O)ccc12 [Compound S-5, 4-Methylumbellifer-7-yl 1-thio-β-D-fucopyranoside]	402 nm
Cc1cc(=O)oc2cc(S[C@H]3O[C@H](CO)[C@H](O)[C@H](O)[C@H]3O)ccc12 [Compound S-6, 4-Methylumbellifer-7-yl 1-thio-α-D-galactopyranoside]	416 nm

Same assay, conditions: PBS; relative to 4-MUB in DMF; 7-MC in presence of 10 mM DTT

Structure (SMILES)	Relative quantum yield Φ
Cc1cc(=O)oc2cc(S)ccc12 [Compound 7-MC, 7-mercapto-4-methylcoumarin, reference compound]	0.020
Cc1cc(=O)oc2cc(S[C@@H]3O[C@H](C(=O)O)[C@@H](O)[C@H](O)[C@H]3O)ccc12 [Compound S-1, 4-Methylumbellifer-7-yl 1-thio-β-D-glucopyranosiduronic acid]	0.235
Cc1cc(=O)oc2cc(S[C@@H]3OC[C@@H](O)[C@H](O)[C@H]3O)ccc12 [Compound S-2, 4-Methylumbellifer-7-yl 1-thio-β-D-xylopyranoside]	0.181
Cc1cc(=O)oc2cc(S[C@@H]3O[C@H](CO)[C@@H](O)[C@H](O)[C@H]3O)ccc12 [Compound S-3, 4-Methylumbellifer-7-yl 1-thio-β-D-glucopyranoside]	0.242
Cc1cc(=O)oc2cc(S[C@@H]3O[C@H](CO)[C@H](O)[C@H](O)[C@H]3O)ccc12 [Compound S-4, 4-Methylumbellifer-7-yl 1-thio-β-D-galactopyranoside]	0.271
Cc1cc(=O)oc2cc(S[C@@H]3O[C@H](C)[C@H](O)[C@H](O)[C@H]3O)ccc12 [Compound S-5, 4-Methylumbellifer-7-yl 1-thio-β-D-fucopyranoside]	0.228
Cc1cc(=O)oc2cc(S[C@H]3O[C@H](CO)[C@H](O)[C@H](O)[C@H]3O)ccc12 [Compound S-6, 4-Methylumbellifer-7-yl 1-thio-α-D-galactopyranoside]	0.185
